Assay results published in paper PMC3945162 (Psychopharmacology, 2013).
“And” between values parts separate entries of the source, which are not always exact repeats. Equal entries are not always repeated. Where two headings read alike, the source gives them in different places.

Key:
Male Swiss–Webster mice = assay: Locomotor activity; format: in vivo, mouse
[1] = tested on: rats trained to discriminate DMT (5 mg/kg) from saline; format: in vivo, rat; details: DMT-trained rats
[2] = tested on: rats trained to discriminate DOM (0.5 mg/kg) from saline; format: in vivo, rat
[3] = tested on: rats trained to discriminate LSD (0.1 mg/kg) from saline; format: in vivo, rat; details: LSD-trained rats; for Maximum %DAR (drug-appropriate responding): i.p., at dose of maximum DAR
[4] = tested on: rats trained to discriminate MDMA (1.5 mg/kg) from saline; format: in vivo, rat; details: MDMA-trained rats
[5] = tested on: rats trained to discriminate METH (1 mg/kg) from saline; format: in vivo, rat; details: METH-trained rats
Male Sprague-Dawley rats = assay: Adverse effects observed during drug discrimination test sessions; format: in vivo, rat
human 5-HT1A receptor [6] = target: T1, human 5-HT1A receptor (Homo sapiens, UniProt P08908); assay: [3H]8-OH-DPAT binding, HEK-5-HT1A
T1 sequence (P08908 1-422): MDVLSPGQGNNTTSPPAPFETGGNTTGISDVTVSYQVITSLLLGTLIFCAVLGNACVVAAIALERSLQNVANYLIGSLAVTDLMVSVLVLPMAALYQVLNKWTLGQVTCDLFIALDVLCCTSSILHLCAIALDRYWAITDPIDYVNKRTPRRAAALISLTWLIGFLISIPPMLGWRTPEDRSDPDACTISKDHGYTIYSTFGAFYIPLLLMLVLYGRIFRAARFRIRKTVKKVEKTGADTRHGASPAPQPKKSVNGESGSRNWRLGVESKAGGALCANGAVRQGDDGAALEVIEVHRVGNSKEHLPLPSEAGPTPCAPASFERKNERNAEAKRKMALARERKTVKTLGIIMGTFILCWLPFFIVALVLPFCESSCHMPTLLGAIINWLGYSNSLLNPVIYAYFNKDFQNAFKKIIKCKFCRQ

human 5-HT1A receptor [7] = target: T1, human 5-HT1A receptor; assay: [35S]GTPγS binding functional assay, HEK-5-HT1A; format: biochemical
human 5-HT2A receptor [8] = target: T2, human 5-HT2A receptor (Homo sapiens, UniProt P28223); assay: [125I]DOI binding, HEK-5-HT2A cells
human 5-HT2A receptor [9] = target: T2, human 5-HT2A receptor; assay: [3H]AA release from HEK-5-HT2A cells; format: cell-based
human 5-HT2A receptor [10] = target: T2, human 5-HT2A receptor; assay: IP-1 formation, HEK-5-HT2A cells; format: cell-based
human 5-HT2C receptor [11] = target: T3, human 5-HT2C receptor (Homo sapiens, UniProt P28335); assay: biochemical; format: binding
T3 sequence (P28335 33-458): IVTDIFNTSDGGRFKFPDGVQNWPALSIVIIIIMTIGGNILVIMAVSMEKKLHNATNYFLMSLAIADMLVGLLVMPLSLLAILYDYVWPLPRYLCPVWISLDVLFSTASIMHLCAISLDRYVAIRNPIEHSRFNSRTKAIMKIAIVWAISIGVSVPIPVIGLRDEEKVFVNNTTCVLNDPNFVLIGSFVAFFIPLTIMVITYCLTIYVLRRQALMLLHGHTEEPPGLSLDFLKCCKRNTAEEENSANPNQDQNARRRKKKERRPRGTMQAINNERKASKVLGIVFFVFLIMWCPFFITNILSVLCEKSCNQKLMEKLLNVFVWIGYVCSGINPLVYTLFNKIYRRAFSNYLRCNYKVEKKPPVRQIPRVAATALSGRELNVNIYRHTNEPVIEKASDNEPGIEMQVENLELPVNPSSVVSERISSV

human 5-HT2C receptor [12] = target: T3, human 5-HT2C receptor; assay: cell-based
hDAT [13] = target: T4, hDAT (Homo sapiens, UniProt Q01959); assay: [125I]RTI-55 binding, HEK-hDAT cells
hDAT [14] = target: T4, hDAT; assay: [3H]Dopamine uptake, HEK-hDAT cells; format: cell-based
hDAT [15] = target: T4, hDAT; assay: [3H]Dopamine release, HEK-hDAT cells; format: cell-based; details: HEK-hDAT cells
hSERT [16] = target: T5, hSERT (Homo sapiens, UniProt P31645); assay: [125I]RTI-55 binding, HEK-hSERT cells
hSERT [17] = target: T5, hSERT; assay: [3H]Serotonin uptake, HEK-hSERT cells; format: cell-based
hSERT [18] = target: T5, hSERT; assay: [3H]Serotonin release, HEK-hSERT cells; format: cell-based
hNET [19] = target: T6, hNET (Homo sapiens, UniProt P23975); assay: biochemical; format: binding
hNET [20] = target: T6, hNET; assay: cell-based
hNET [21] = target: T6, hNET; assay: cell-based; remark: listed apart in the source
5-HT2A = details: ref McLean et al. 2006; cited from earlier work
[22] = i.p., 15 min pretreatment, at dose of maximum DAR
[23] = 10 mg/kg, METH-trained rats, 15 min

T5 sequence (P31645 whole entry): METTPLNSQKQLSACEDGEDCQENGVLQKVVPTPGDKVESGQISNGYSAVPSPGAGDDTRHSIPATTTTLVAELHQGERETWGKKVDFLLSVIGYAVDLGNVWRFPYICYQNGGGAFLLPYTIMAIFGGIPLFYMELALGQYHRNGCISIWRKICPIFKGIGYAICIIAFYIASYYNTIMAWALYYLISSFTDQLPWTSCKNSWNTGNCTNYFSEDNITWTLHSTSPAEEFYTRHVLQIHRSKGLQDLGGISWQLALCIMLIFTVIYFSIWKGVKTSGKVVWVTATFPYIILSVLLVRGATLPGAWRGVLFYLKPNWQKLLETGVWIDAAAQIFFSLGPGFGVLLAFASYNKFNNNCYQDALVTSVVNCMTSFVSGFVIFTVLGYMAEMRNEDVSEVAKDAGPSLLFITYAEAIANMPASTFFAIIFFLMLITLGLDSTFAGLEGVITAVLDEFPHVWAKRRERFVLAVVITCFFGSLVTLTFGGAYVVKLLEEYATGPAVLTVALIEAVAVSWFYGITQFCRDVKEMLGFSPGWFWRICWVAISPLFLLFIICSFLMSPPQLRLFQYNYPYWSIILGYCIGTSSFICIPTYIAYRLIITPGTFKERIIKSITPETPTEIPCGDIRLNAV
T6 sequence (P23975 whole entry): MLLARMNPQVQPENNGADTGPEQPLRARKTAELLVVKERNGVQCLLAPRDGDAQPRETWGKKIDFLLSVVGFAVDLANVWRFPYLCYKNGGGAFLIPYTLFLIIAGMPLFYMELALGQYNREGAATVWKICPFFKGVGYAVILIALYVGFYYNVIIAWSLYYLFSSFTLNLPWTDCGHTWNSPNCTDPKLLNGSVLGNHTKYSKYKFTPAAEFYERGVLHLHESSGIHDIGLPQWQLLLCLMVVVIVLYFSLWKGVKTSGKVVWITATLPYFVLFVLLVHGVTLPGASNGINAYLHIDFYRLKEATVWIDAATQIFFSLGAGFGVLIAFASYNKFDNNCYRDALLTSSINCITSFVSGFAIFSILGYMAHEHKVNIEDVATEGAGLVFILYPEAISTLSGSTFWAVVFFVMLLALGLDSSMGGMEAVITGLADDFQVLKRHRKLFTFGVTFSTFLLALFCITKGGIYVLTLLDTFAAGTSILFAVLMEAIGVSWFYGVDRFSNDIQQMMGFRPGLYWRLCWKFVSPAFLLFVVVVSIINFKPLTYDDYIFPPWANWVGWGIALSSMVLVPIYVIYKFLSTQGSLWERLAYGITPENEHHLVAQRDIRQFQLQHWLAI
T2 sequence (P28223 whole entry): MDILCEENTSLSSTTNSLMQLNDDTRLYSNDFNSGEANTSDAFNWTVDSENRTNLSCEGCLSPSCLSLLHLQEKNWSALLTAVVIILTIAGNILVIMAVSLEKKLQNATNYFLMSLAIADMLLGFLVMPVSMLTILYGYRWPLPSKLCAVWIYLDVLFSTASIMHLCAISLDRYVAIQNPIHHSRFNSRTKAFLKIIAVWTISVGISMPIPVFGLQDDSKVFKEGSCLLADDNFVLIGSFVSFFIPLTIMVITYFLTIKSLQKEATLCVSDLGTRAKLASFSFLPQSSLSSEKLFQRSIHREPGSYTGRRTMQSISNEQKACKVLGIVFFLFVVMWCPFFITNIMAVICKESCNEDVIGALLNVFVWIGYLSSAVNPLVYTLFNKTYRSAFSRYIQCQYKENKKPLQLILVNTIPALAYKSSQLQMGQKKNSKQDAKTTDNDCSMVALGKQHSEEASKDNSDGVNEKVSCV
T4 sequence (Q01959 whole entry): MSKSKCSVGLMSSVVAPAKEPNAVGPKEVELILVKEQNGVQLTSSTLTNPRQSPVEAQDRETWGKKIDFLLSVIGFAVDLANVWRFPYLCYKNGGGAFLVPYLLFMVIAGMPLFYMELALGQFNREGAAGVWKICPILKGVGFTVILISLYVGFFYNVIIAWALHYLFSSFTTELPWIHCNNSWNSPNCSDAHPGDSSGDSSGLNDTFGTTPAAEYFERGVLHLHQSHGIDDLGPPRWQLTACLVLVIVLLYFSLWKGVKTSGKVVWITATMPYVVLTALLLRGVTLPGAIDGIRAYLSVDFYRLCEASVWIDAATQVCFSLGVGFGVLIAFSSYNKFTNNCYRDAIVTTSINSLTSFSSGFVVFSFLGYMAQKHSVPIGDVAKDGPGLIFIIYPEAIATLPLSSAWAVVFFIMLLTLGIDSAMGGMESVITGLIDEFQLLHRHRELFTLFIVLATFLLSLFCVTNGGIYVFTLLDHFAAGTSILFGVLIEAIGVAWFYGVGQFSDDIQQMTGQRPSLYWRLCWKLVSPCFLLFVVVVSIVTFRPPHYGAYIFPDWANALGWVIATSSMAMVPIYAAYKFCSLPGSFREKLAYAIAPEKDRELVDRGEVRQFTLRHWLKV

## COc1cc(CCN)c(OC)cc1C [2C-D, 2,5-dimethoxy-4-methylphenethylamine]
Male Swiss–Webster mice; 100 mg/kg i.p., within 30 min
  Lethality (mice): 8/8
Male Swiss–Webster mice; mice, i.p.
  Doses producing stimulant effects on locomotor activity: 3 mg/kg
  Duration of depressant effects: 20 to 40 min
  Duration of stimulant effects: 180 min
  Onset of depressant effects (within, after injection): ≤ 10 min
  Onset of stimulant effects (within, after injection): ≤ 50 min
[1]; 15 min pretreatment
  Rate of responding at dose of maximum DAR: 0.154±0.070 resp/s
[1]; 70 min pretreatment
  Rate of responding at dose of maximum DAR: 0.332±0.067 resp/s
[1]; i.p., 70 min pretreatment, at dose of maximum DAR
  Maximum %DAR (drug-appropriate responding): 83±17 %
[2]; 15 min pretreatment
  Rate of responding at dose of maximum DAR: 0.383±0.038 resp/s
[2]; 70 min pretreatment
  Rate of responding at dose of maximum DAR: 0.338±0.187 resp/s
[2]; [22]
  Maximum %DAR (drug-appropriate responding): 100±0 %
[3]; 15 min pretreatment
  Rate of responding at dose of maximum DAR: 0.385±0.060 resp/s
  Maximum %DAR (drug-appropriate responding): 83±17 %
[3]; 70 min pretreatment
  Rate of responding at dose of maximum DAR: 0.379±0.054 resp/s
  Maximum %DAR (drug-appropriate responding): 83±17 %
[4]; 15 min pretreatment
  Rate of responding at dose of maximum DAR: 0.402±0.073 resp/s
[4]; 70 min pretreatment
  Rate of responding at dose of maximum DAR: 0.547±0.127 resp/s
[4]; [22]
  Maximum %DAR (drug-appropriate responding): 61% and 61±20 ^2%
[5]; 15 min pretreatment
  Rate of responding at dose of maximum DAR: 0.190±0.086 resp/s
[5]; 70 min pretreatment
  Rate of responding at dose of maximum DAR: 0.072±0.032 resp/s
[5]; [22]
  Maximum %DAR (drug-appropriate responding): 15±15 ^2%
Male Sprague-Dawley rats; [23]
  Rats that failed to complete the first fixed ratio: 4/6
  Reddening of the extremities (rats affected/tested): 2/6
Male Sprague-Dawley rats; 50 mg/kg, 70 min
  Rats with salivation and failure to complete the first fixed ratio: Two of three
Human 5-HT1A receptor [6]
  Ki: 1630 ± 150 nM
Human 5-HT1A receptor [7]
  EC50: > 10000 nM
Human 5-HT1A receptor [7]; read-out: 5-HT1A Function [35S]GTPγS Binding % maximal effect
  Emax: < 25%
Human 5-HT2A receptor [8]
  Ki: 23.9 ± 3.9 nM
Human 5-HT2A receptor [9]
  EC50: 153 ± 28 nM
Human 5-HT2A receptor [9]; read-out: 5-HT2A Function [3H]AA release % maximal effect
  Emax: 81.1 ± 9.7%
Human 5-HT2A receptor [10]
  EC50: 145 ± 39 nM
Human 5-HT2A receptor [10]; read-out: 5-HT2A Function IP-1 formation % maximal effect
  Emax: 93 ± 6.7%
Human 5-HT2C receptor [11]
  Ki: 12.7 ± 1.3 nM
Human 5-HT2C receptor [12]
  EC50: 71.1 ± 8 nM
Human 5-HT2C receptor [12]; read-out: 5-HT2C Function IP-formation % maximal effect
  Emax: 100 ± 14%
hDAT [13]
  Ki: > 10000 nM
hDAT [14]
  IC50: > 10000 nM
hDAT [15]
  [3H]Dopamine release % METH maximal effect: ND Minimal
hSERT [16]
  Ki: > 10000 nM
hSERT [17]
  IC50: > 8400 nM
hSERT [18]
  [3H]Serotonin release % PCA maximal effect: ND Minimal
hNET [19]
  Ki: > 8500 nM
hNET [20]
  IC50: > 9200 nM
hNET [21]
  [3H]NE release % METH maximal effect: ND Minimal

## COc1cc(Br)c(OC)c2c1[C@H](CN)C2 [((R)-4-bromo-3,6-dimethoxybenzocyclobuten-1-yl)methyl-amine)]
5-HT2A
  Fold more potent at stimulating inositol phosphate turnover than AA release: 65 fold
